Laboratory results as given in patent US20060293223A1 (Eli Lilly and Company Patent Division, priority 2003, published 2006).
Positions of bridges follow the written chain, without caps; N, C: chain ends. Non-standard residues stand in square brackets, D forms with d. hCys = N[C@@H](CCS)C(=O)O

Tested on: MC1/MC4
Conditions: ratio MC1/MC4
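Further: ratio of EC50 values obtained at MC1 versus MC4 receptors, with MC1 potency measured by luciferase reporter activity in stably transfected cells expressing human MC1.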

Substance | MC1/MC4 selectivity
3-(4-hydroxyphenyl)propionyl-Arg-cyclo[Cys-Glu-His-D-Phe-Arg-Trp-Cys]-NH2 [Compound 66] | 13.23
3-(4-methylbenzoyl)propionyl-Arg-cyclo[Cys-Glu-His-D-Phe-Arg-Trp-Cys]-NH2 [Compound 67] | 9.15
3-guanidinopropionyl-cyclo[Cys-Glu-His-D-Phe-Arg-Trp-Cys]-NH2 [Compound 40] | 25.92
3-guanidinopropionyl-cyclo[hCys-His-D-Phe-Arg-Trp-Cys]-NH2 [Compound 148] | 51.98
4-guanidinobutyryl-cyclo[Cys-Glu-His-D-Phe-Arg-Trp-Cys]-NH2 [Compound 41] | 58.47
4-phenylbutyryl-cyclo[hCys-His-D-Phe-Arg-Trp-Cys]-NH2 [Compound 147] | 0.86
4-phenylbutyryl-cyclo[hCys-His-D-Phe-Arg-Trp-penicillamine]-NH2 [Compound 174] | 4.98
5-guanidinovaleryl-cyclo[Cys-Glu-His-D-Phe-Arg-Trp-Cys]-NH2 [Compound 42] | 44.63
5-guanidinovaleryl-cyclo[hCys-His-D-Phe-Arg-Trp-Cys]-NH2 [Compound 149] | 51.85
Ac-Arg-cyclo[Cys-Cya-His-D-Phe-Arg-Trp-Cys]-NH2 [Compound 26] | 38.90
Ac-Arg-cyclo[Cys-Glu-(1-Me-His)-(4-Cl-D-Phe)-Arg-Trp-Cys]-NH2 [Compound 87] | 316.25
Ac-Arg-cyclo[Cys-Glu-(1-Me-His)-D-Phe-Arg-Trp-Cys]-NH2 [Compound 51] | 76.75
Ac-Arg-cyclo[Cys-Glu-His-(4-Cl-D-Phe)-Arg-Trp-Cys]-NH2 [Compound 50] | 36.10
Ac-Arg-cyclo[Cys-Glu-His-D-Phe-Arg-Trp-Cys]-NH2 [Compound 48] | 26.80
Ac-Arg-cyclo[Cys-Glu-His-D-Phe-Arg-Trp-Cys]-OH [Compound 49] | 35.35
Ac-Arg-cyclo[Cys-His-(4-Cl-D-Phe)-Arg-Trp-hCys]-NH2 [Compound 191] | 127.33
Ac-Arg-cyclo[Cys-His-(4-F-D-Phe)-Arg-Trp-hCys]-NH2 [Compound 190] | 367.10
Ac-CDH[dF]RWC-NH2 (disulfide 1-7) [Compound 6] | 35.74
Ac-CEH[dF]RWCKP-NH2 (disulfide 1-7) [Compound 35] | 1.17
Ac-CEH[dF]RWCSP-NH2 (disulfide 1-7) [Compound 36] | 1.22
Ac-CH[dF]RWC-NH2 (disulfide 1-6) [Compound 1] | 3.91
Ac-CKH[dF]RWC-NH2 (disulfide 1-7) [Compound 16] | 2.94
Ac-CLH[dF]RWC-NH2 (disulfide 1-7) [Compound 15] | 14.75
Ac-CQH[dF]RWC-NH2 (disulfide 1-7) [Compound 8] | 3.33
Ac-Cit-cyclo[Cys-Glu-(1-Me-His)-D-Phe-Arg-Trp-Cys]-NH2 [Compound 56] | 21.38
Ac-Cit-cyclo[Cys-Glu-His-D-Phe-Arg-Trp-Cys]-NH2 [Compound 55] | 28.81
Ac-D-Arg-cyclo[Cys-Cya-His-D-Phe-Arg-Trp-Cys]-NH2 [Compound 27] | 30.11

Substance | MC1/MC4 selectivity
Ac-D-Arg-cyclo[Cys-Glu-His-D-Phe-Arg-Trp-Cys]-NH2 [Compound 52] | 30.54
Ac-KCEH[dF]RWC-NH2 (disulfide 2-8) [Compound 58] | 31.69
Ac-LCEH[dF]RWC-NH2 (disulfide 2-8) [Compound 57] | 29.00
Ac-Lys(ipr)-cyclo[Cys-Glu-His-D-Phe-Arg-Trp-Cys]-NH2 [Compound 59] | 20.92
Ac-Orn-cyclo[Cys-Glu-His-D-Phe-Arg-Trp-Cys]-NH2 [Compound 62] | 46.91
Ac-RCH[dF]RW[hCys]-NH2 (disulfide 2-7) [Compound 189] | 23.31
Ac-R[hCys]H[dF]RWC-NH2 (disulfide 2-7) [Compound 158] | 50.25
Ac-R[hCys]H[dF]RWC-OH (disulfide 2-7) [Compound 159] | 49.41
Ac-Tyr-(1-β-hArg)-cyclo[Cys-Glu-His-D-Phe-Arg-Trp-Cys]-NH2 [Compound 127] | 20.25
Ac-Tyr-Arg-cyclo[Cys-Cya-His-D-Phe-Arg-Trp-Cys]-NH2 [Compound 28] | 26.35
Ac-Tyr-Arg-cyclo[Cys-Glu-(1-Bom-His)-D-Phe-Arg-Trp-Cys]-NH2 [Compound 101] | 0.97
Ac-Tyr-Arg-cyclo[Cys-Glu-(1-Me-D-His)-(4-Br-D-Phe)-Arg-Trp-Cys]-NH2 [Compound 91] | 21.14
Ac-Tyr-Arg-cyclo[Cys-Glu-(1-Me-D-His)-(4-Cl-D-Phe)-Arg-Trp-Cys]-NH2 [Compound 88] | 9.07
Ac-Tyr-Arg-cyclo[Cys-Glu-(1-Me-D-His)-(4-F-D-Phe)-Arg-Trp-Cys]-NH2 [Compound 85] | 2.66
Ac-Tyr-Arg-cyclo[Cys-Glu-(1-Me-D-His)-(4-OMe-D-Phe)-Arg-Trp-Cys]-NH2 [Compound 95] | 3.21
Ac-Tyr-Arg-cyclo[Cys-Glu-(1-Me-D-His)-D-Phe-Arg-Trp-Cys]-NH2 [Compound 82] | 1.66
Ac-Tyr-Arg-cyclo[Cys-Glu-(1-Me-His)-(4-Br-D-Phe)-Arg-Trp-Cys]-NH2 [Compound 90] | 237.22
Ac-Tyr-Arg-cyclo[Cys-Glu-(1-Me-His)-(4-F-D-Phe)-Arg-Trp-Cys]-NH2 [Compound 84] | 150.60
Ac-Tyr-Arg-cyclo[Cys-Glu-(1-Me-His)-(4-OMe-D-Phe)-Arg-Trp-Cys]-NH2 [Compound 94] | 16.97
Ac-Tyr-Arg-cyclo[Cys-Glu-(1-Me-His)-D-Phe-Arg-Trp-Cys]-NH2 [Compound 81] | 101.69
Ac-Tyr-Arg-cyclo[Cys-Glu-(1-benzyl-D-His)-D-Phe-Arg-Trp-Cys]-NH2 [Compound 100] | 1.67
Ac-Tyr-Arg-cyclo[Cys-Glu-(1-benzyl-His)-D-Phe-Arg-Trp-Cys]-NH2 [Compound 99] | 88.42
Ac-Tyr-Arg-cyclo[Cys-Glu-(1-pyrazolyl-Ala)-D-Phe-Arg-Trp-Cys]-NH2 [Compound 102] | 4.76
Ac-Tyr-Arg-cyclo[Cys-Glu-(2-pyrazine-Ala)-D-Phe-Arg-Trp-Cys]-NH2 [Compound 105] | 24.04
Ac-Tyr-Arg-cyclo[Cys-Glu-(3-Me-His)-D-Phe-Arg-Trp-Cys]-NH2 [Compound 96] | 20.87
Ac-Tyr-Arg-cyclo[Cys-Glu-(4-phenyl-1H-imidazol-2-yl-Ala)-D-Phe-Arg-Trp-Cys]-NH2 [Compound 103] | 75.59
Ac-Tyr-Arg-cyclo[Cys-Glu-(4-phenyl-1H-imidazol-2-yl-D-Ala)-D-Phe-Arg-Trp-Cys]-NH2 [Compound 104] | 3.68
